# Columns and labels:
# human Edg-1 (S1P1) = molecular target: T1, human Edg-1 (S1P1) (Homo sapiens, UniProt P21453); experiment: S1P1 binding inhibition test (membrane, [33P]-S1P); settings: for inhibition at 10 µM: compound 10 μM, [33P]-S1P 0.1 nM, human Edg-1 (S1P1) HEK-293 membrane fraction, read-out: Binding test (membrane) % inhibition (10 μM); for IC50: membrane system binding test, various concentrations
# T1 construct: expressed in transfected cells; host or cells: HEK-293
# Summary of the method: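 Membranes from Edg-1 (S1P1)-expressing HEK-293 cells incubated 1 h at 30 °C in pH 7.4 Tris buffer with 0.1 nM [33P]-S1P and compound (10^−5 M, or various concentrations for IC50). Filter-bound radioactivity counted; background from non-transfected HEK-293 membranes; inhibition = [1−(A−C)/(B−C)]×100.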
# T1 sequence (P21453 whole entry): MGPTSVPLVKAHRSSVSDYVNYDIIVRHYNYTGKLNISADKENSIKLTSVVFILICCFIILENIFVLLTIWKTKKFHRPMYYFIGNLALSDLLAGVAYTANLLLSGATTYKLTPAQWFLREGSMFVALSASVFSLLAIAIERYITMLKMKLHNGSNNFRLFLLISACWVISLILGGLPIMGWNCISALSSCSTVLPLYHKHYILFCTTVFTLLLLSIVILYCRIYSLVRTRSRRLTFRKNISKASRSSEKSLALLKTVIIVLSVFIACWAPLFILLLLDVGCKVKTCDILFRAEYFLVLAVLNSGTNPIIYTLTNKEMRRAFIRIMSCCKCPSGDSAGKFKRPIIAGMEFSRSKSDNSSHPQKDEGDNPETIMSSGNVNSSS
Compound,inhibition at 10 µM (human Edg-1 (S1P1)),melting point,IC50 (human Edg-1 (S1P1))
CCn1c(C(Cc2ccc(C)cc2)NS(=O)(=O)c2ccc(Cl)c(Cl)c2)cnc1Oc1ccc(F)cc1 (centres unmarked) [Compound 196],88.9%,123.5 to 124 °C,–
CCn1c(C(C)NS(=O)(=O)/C=C/c2ccccc2)cnc1Oc1cccc(N2CCN(C)CC2)c1 (centres unmarked) [Compound 245],98.9%,141 to 143 °C,–
CCn1c(C(C)NS(=O)(=O)c2ccc(Cl)c(Cl)c2)cnc1Oc1ccc(C)nc1 (centres unmarked) [Compound 195],96.1%,174 to 175 °C,20 nM
CCn1c(C(C)NS(=O)(=O)c2ccc(Cl)c(Cl)c2)cnc1OCc1ccccc1 (centres unmarked) [Compound 230],90.7%,102 to 103 °C,–
CCn1c(C(C)NS(=O)(=O)c2ccc(Cl)c(Cl)c2)cnc1Oc1ccc(F)cc1 (centres unmarked) [Compound 186],99.8%,156 to 157 °C,≤ 70 nM
CCn1c(C(NS(=O)(=O)c2ccc(Cl)c(Cl)c2)C(C)C)cnc1Oc1ccc(F)cc1 (centres unmarked) [Compound 221],52.6%,101 to 102 °C,–
CCn1c(C(C)NS(=O)(=O)c2ccc(Cl)c(Cl)c2)cnc1OC1CCCCC1 (centres unmarked) [Compound 216],92%,180 to 181 °C,–
CCn1c(C(C)NS(=O)(=O)c2ccc(Cl)c(Cl)c2)cnc1Oc1ccc(C)c(C)c1 (centres unmarked) [Compound 218],101%,102.5 to 107.5 °C,–
CCn1c(C(C)NS(=O)(=O)c2ccc(Cl)c(Cl)c2)cnc1Oc1ccccc1 (centres unmarked) [Compound 204],95.7%,166.5 to 167.5 °C,–
"CCn1c(C(C)NS(=O)(=O)c2ccc(Cl)c(Cl)c2)cnc1S(=O)(=O)c1ccc(C)cc1 (centres unmarked) [Compound 252, 3,4-Dichloro-N-{1-[3-ethyl-2-(toluene-4-sulfonyl)-3H-imidazol-4-yl]-ethyl}-benzenesulfonamide]",52.5%,180 to 183 °C,–
CCn1c(C(C)NS(=O)(=O)c2ccc(Cl)c(Cl)c2)cnc1Oc1ccc2ccncc2c1 (centres unmarked) [Compound 213],99.6%,185.5 to 187.5 °C,49 nM
CCn1c(C(C)NS(=O)(=O)c2ccc(Cl)c(Cl)c2)cnc1OCC(F)(F)F (centres unmarked) [Compound 224],87%,133.5 to 134.5 °C,–
CCn1c(C(C)NS(=O)(=O)c2ccc(Cl)c(Cl)c2)cnc1Oc1cccc(C2CCN(C)CC2)c1 (centres unmarked) [Compound 207],101%,161 to 163.5 °C,18.2 nM
CCn1c(C(C)NS(=O)(=O)c2ccc(Cl)c(Cl)c2)cnc1Oc1ccc(OCCN(C)C)cc1 (centres unmarked) [Compound 229],99%,106 to 107 °C,≤ 70 nM
CCn1c(C(C)NS(=O)(=O)c2ccc(Cl)c(Cl)c2)cnc1Oc1cccc(N2CCOCC2)c1 (centres unmarked) [Compound 190],101%,167 to 169 °C,10.9 nM
"CCn1c(Oc2ccc(F)cc2)nc(C)c1C(C)NS(=O)(=O)c1ccc(Cl)c(Cl)c1 (centres unmarked) [Compound 188, 3,4-Dichloro-N-{1-[3-ethyl-2-(4-fluorophenoxy)-5-methyl-3H-imidazol-4-yl]-ethyl}-benzenesulfonamide]",100%,119.5 to 120.5 °C,–
CCn1c(C(C)NS(=O)(=O)c2ccc(Cl)c(Cl)c2)cnc1Oc1cccc(N2CCCCC2)c1 (centres unmarked) [Compound 208],99.6%,169.5 to 170.5 °C,≤ 15 nM
CCCOc1ncc(C(C)NS(=O)(=O)c2ccc(Cl)c(Cl)c2)n1CC (centres unmarked) [Compound 223],92.1%,181 to 183 °C,–
CCn1c(C(C)NS(=O)(=O)c2ccc(Cl)c(Cl)c2)cnc1Oc1cc(C)nc(C)c1 (centres unmarked) [Compound 215],100%,179 to 180 °C,–
CCn1c(C(C)NS(=O)(=O)c2ccc(Cl)c(Cl)c2)cnc1OCCCOC (centres unmarked) [Compound 239],95.9%,151.5 to 152.5 °C,–
CCn1c(C(C)NS(=O)(=O)c2ccc(Cl)c(Cl)c2)cnc1Oc1ccc2ccccc2c1 (centres unmarked) [Compound 206],98.5%,172 to 173 °C,–
CCn1c(C(C)NS(=O)(=O)c2ccc(Cl)c(Cl)c2)cnc1Oc1ccc(OCCN2CCOCC2)cc1 (centres unmarked) [Compound 214],102%,167 to 168 °C,≤ 70 nM
C=CCCCOc1ncc(C(C)NS(=O)(=O)c2ccc(Cl)c(Cl)c2)n1CC (centres unmarked) [Compound 237],93.1%,152.5 °C,–
CCOc1ncc(C(C)NS(=O)(=O)c2ccc(Cl)c(Cl)c2)n1CC (centres unmarked) [Compound 219],83.2%,195 to 196 °C,–
CCc1nc(Oc2ccc(F)cc2)n(CC)c1C(C)NS(=O)(=O)c1ccc(Cl)c(Cl)c1 (centres unmarked) [Compound 225],98.9%,122 to 124 °C,–
CCn1c(C(C)NS(=O)(=O)c2ccc3cc(C)ccc3c2)cnc1Oc1cccc(N2CCN(C)CC2)c1 (centres unmarked) [Compound 242],94.5%,175 to 177 °C,–
CCn1c(C(C)NS(=O)(=O)c2ccc(Cl)c(Cl)c2)cnc1Oc1cc(C(F)(F)F)n(C)n1 (centres unmarked) [Compound 217],96.3%,146 to 148 °C,–
